This is an account of results in patent US11535630B2, “Apelin receptor (APJ) agonists and uses thereof” (Research Triangle Institute, priority 2015, dated 2022).

The EC50 is the concentration needed to bring the measured effect to its halfway point.

One assay concerns the target T1, apelin receptor (APJ) (Homo sapiens, UniProt P35414).
T1 sequence (P35414 1-380): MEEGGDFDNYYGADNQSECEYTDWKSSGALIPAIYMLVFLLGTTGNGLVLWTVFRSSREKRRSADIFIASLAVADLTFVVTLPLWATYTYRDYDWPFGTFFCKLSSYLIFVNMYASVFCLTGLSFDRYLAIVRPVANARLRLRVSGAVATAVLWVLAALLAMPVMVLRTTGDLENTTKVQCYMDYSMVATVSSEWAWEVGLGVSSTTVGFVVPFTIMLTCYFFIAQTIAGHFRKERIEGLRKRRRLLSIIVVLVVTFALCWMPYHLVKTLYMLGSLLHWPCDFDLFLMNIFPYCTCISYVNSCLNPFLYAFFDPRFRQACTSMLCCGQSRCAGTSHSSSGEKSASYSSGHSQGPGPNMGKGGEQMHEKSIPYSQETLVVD
The assay can be described thus: In vitro apelin agonist activity (methods of Giddings et al., Apelin-13 as positive control). It counts as cell-based. The settings on record: EC50 (nM) Ave, in vitro apelin agonist activity, methods of Giddings et al., Apelin-13 as positive control. From the text: Characterization of the Apelin Agonist Activity of the Compounds
1:39-47, the contents of which are hereby incorporated by reference in its entirety. Using the methods described in Giddings et al. and Apelin-13 as a positive control.
For `O=C(C[C@H](CCN1CCOCC1)NC(=O)c1cc(-c2ccccc2C(F)(F)F)n(C2CCCC2)n1)NC1CCC1` [compound 491, (3S)-N-cyclobutyl-3-({1-cyclopentyl-5-[2-(trifluoromethyl)phenyl]-1H-pyrazol-3-yl}formamido)-5-(morpholin-4-yl)pentanamide], the EC50 was determined as 68 nM. On the same count and under the same terms, then `O=C(C[C@H](CCN1CCCC[C@H]1C(F)(F)F)NC(=O)c1cc(-c2ccccc2C(F)(F)F)n(C2CCCC2)n1)NC1CCC1` [compound 496, (3S)-N-cyclobutyl-3-({1-cyclopentyl-5-[2-(trifluoromethyl)phenyl]-1H-pyrazol-3-yl}formamido)-5-[(2S)-2-(trifluoromethyl)piperidin-1-yl]pentanamide], with 30 nM.

Staying with this assay, now noted: in vitro apelin agonist activity, methods of Giddings et al., Apelin-13 as positive control; read-out: EC50 (nM) Ave.
In the case of `O=C(O)C[C@H](CCN1CCCC(F)(F)C1)NC(=O)c1cc(-c2cnccc2Cl)n(C2CCCC2)n1` [compound 467, (3S)-3-{[5-(4-chloropyridin-3-yl)-1-cyclopentyl-1H-pyrazol-3-yl]formamido}-5-(3,3-difluoropiperidin-1-yl)pentanoic acid], the concentration for a half-maximal effect (EC50) is over 10000 nM. Same read-out and setting: the value for `O=C(O)C[C@H](CCN1CCCC(F)(F)C1)NC(=O)c1cc(-c2cccnc2Cl)n(C2CCCC2)n1` [compound 468] was 1670 nM; that for `O=C(C[C@H](CCN1CCCC(F)(F)C1)NC(=O)c1cc(-c2cccnc2Cl)n(C2CCCC2)n1)NC1CCC1` [compound 469, (3S)-3-{[5-(2-chloropyridin-3-yl)-1-cyclopentyl-1H-pyrazol-3-yl]formamido}-N-cyclobutyl-5-(3,3-difluoropiperidin-1-yl)pentanamide] was 133 nM; that for `O=C(N[C@@H](CCc1ccc(F)cc1)Cc1nnc[nH]1)c1cc(-c2ccccc2C(F)(F)F)n(C2CCCC2)n1` [compound 470, 1-cyclopentyl-N-[(2S)-4-(4-fluorophenyl)-1-(4H-1,2,4-triazol-3-yl)butan-2-yl]-5-[2-(trifluoromethyl)phenyl]-1H-pyrazole-3-carboxamide] was 435 nM. For the compound `Cc1nnc(C[C@H](CCc2ccc(F)cc2)NC(=O)c2cc(-c3ccccc3C(F)(F)F)n(C3CCCC3)n2)[nH]1` [compound 471, 1-cyclopentyl-N-[(2S)-4-(4-fluorophenyl)-1-(5-methyl-4H-1,2,4-triazol-3-yl)butan-2-yl]-5-[2-(trifluoromethyl)phenyl]-1H-pyrazole-3-carboxamide], the EC50 was 1140 nM. On the same count and under the same terms, the value for `O=C(N[C@@H](CCc1ccc(F)cc1)Cc1nnc(C(F)(F)F)o1)c1cc(-c2ccccc2C(F)(F)F)n(C2CCCC2)n1` [compound 475, 1-cyclopentyl-N-[(2S)-4-(4-fluorophenyl)-1-[5-(trifluoromethyl)-1,3,4-oxadiazol-2-yl]butan-2-yl]-5-[2-(trifluoromethyl)phenyl]-1H-pyrazole-3-carboxamide] was 146 nM. The same measure, in the same setting: then `O=C(C[C@H](CCN1CCCC(F)(F)C1)NC(=O)c1cc(-c2ncccc2C(F)(F)F)n(C2CCCC2)n1)NC1CCC1` [compound 479, (3S)-N-cyclobutyl-3-({1-cyclopentyl-5-[3-(trifluoromethyl)pyridin-2-yl]-1H-pyrazol-3-yl}formamido)-5-(3,3-difluoropiperidin-1-yl)pentanamide], with 0.86 nM; and `O=C(C[C@H](CCN1CCC(F)(F)C1)NC(=O)c1cc(-c2ccccc2C(F)(F)F)n(C2CCCC2)n1)NC1CCC1` [compound 480, (3S)-N-cyclobutyl-3-({1-cyclopentyl-5-[2-(trifluoromethyl)phenyl]-1H-pyrazol-3-yl}formamido)-5-(3,3-difluoropyrrolidin-1-yl)pentanamide], with 2.76 nM. Still for that read-out and setting: then `N#CC1CCN(CC[C@@H](CC(=O)NC2CCC2)NC(=O)c2cc(-c3ccccc3C(F)(F)F)n(C3CCCC3)n2)C1` (stereo partly drawn) [compound 481, (3S)-5-(3-cyanopyrrolidin-1-yl)-N-cyclobutyl-3-({1-cyclopentyl-5-[2(trifluoromethyl)phenyl]-1H-pyrazol-3-yl}formamido)pentanamide], with 1.96 nM; and `CN1CC(NC(=O)C[C@H](CCc2ccc(F)cc2)NC(=O)c2cc(-c3ccccc3C(F)(F)F)n(C3CCCC3)n2)C1` [compound 482, (3S)-3-({1-cyclopentyl-5-[2-(trifluoromethyl)phenyl]-1H-pyrazol-3-yl}formamido)-5-(4-fluorophenyl)-N-(1-methylazetidin-3-yl)pentanamide], with 474 nM; and `CN(CC[C@@H](CC(=O)NC1CCC1)NC(=O)c1cc(-c2ccccc2C(F)(F)F)n(C2CCCC2)n1)C1CCCCC1` [compound 483], with 14 nM.

With `O=C(O)C[C@H](CCC1CCCCC1)NC(=O)c1cc(-c2ccccc2C(F)(F)F)n(C2CCCC2)n1` [compound 484, (3S)-5-cyclohexyl-3-({1-cyclopentyl-5-[2-(trifluoromethyl)phenyl]-1H-pyrazol-3-yl}formamido)pentanoic acid], the EC50 came out at 1520 nM. The same measure, in the same setting: the value for `O=C(O)C[C@H](CCN1CCC(F)(F)C1)NC(=O)c1cc(-c2ccccc2C(F)(F)F)n(C2CCCC2)n1` [compound 485, (3S)-3-({1-cyclopentyl-5-[2-(trifluoromethyl)phenyl]-1H-pyrazol-3-yl}formamido)-5-(3,3-difluoropyrrolidin-1-yl)pentanoic acid] was 110 nM; that for `O=C(O)C[C@H](CCN1CCOCC1)NC(=O)c1cc(-c2ccccc2C(F)(F)F)n(C2CCCC2)n1` [compound 486, (3S)-3-({1-cyclopentyl-5-[2-(trifluoromethyl)phenyl]-1H-pyrazol-3-yl}formamido)-5-(morpholin-4-yl)pentanoic acid] was 931 nM; that for `O=C(O)C[C@H](CCN1CCCC[C@H]1C(F)(F)F)NC(=O)c1cc(-c2ccccc2C(F)(F)F)n(C2CCCC2)n1` [compound 487, (3S)-3-({1-cyclopentyl-5-[2-(trifluoromethyl)phenyl]-1H-pyrazol-3-yl}formamido)-5-[(2S)-2-(trifluoromethyl)piperidin-1-yl]pentanoic acid] was 277 nM. As to `O=C(O)C[C@H](CCN1CCCC[C@@H]1C(F)(F)F)NC(=O)c1cc(-c2ccccc2C(F)(F)F)n(C2CCCC2)n1` [compound 488, (3S)-3-({1-cyclopentyl-5-[2-(trifluoromethyl)phenyl]-1H-pyrazol-3-yl}formamido)-5-[(2R)-2-(trifluoromethyl)piperidin-1-yl]pentanoic acid], the EC50 worked out at 1340 nM. `CN(C(=O)C[C@H](CCN1CCCC[C@@H]1C(F)(F)F)NC(=O)c1cc(-c2ccccc2C(F)(F)F)n(C2CCCC2)n1)c1nccs1` [compound 489, (3S)-3-({1-cyclopentyl-5-[2-(trifluoromethyl)phenyl]-1H-pyrazol-3-yl}formamido)-N-methyl-N-(1,3-thiazol-2-yl)-5-[(2R)-2-(trifluoromethyl)piperidin-1-yl]pentanamide]: the EC50 was found to be 161 nM. The same measure, in the same setting: the value for `CN(CC[C@@H](CC(=O)NC1CCC1)NC(=O)c1cc(-c2ccccc2C(F)(F)F)n(C2CCCC2)n1)C1CCCC1` [compound 490, (3S)-N-cyclobutyl-5-[cyc1opentyl(methyl)amino]-3-({1-cyclopentyl-5-[2(trifluoromethyl)phenyl]-1H-pyrazol-3-yl}formamido)pentanamide] was 10.3 nM. Still for that read-out and setting: the value for `CCCN(CCC)CC[C@@H](CC(=O)NC1CCC1)NC(=O)c1cc(-c2ccccc2C(F)(F)F)n(C2CCCC2)n1` [compound 492, (3S)-N-cyclobutyl-3-({1-cyclopentyl-5-[2-(trifluoromethyl)phenyl]-1H-pyrazol-3-yl}formamido)-5-(dipropylamino)pentanamide] was 36 nM.

Take `CC(C)CN(C)CC[C@@H](CC(=O)NC1CCC1)NC(=O)c1cc(-c2ccccc2C(F)(F)F)n(C2CCCC2)n1` [compound 493, (3S)-N-cyclobutyl-3-({1-cyclopentyl-5-[2-(trifluoromethyl)phenyl]-1H-pyrazol-3-yl}formamido)-5-[methyl(2-methylpropyl)amino]pentanamide]: the concentration for a half-maximal effect (EC50) was found to be 24 nM. Still for that read-out and setting: the value for `O=C(O)C[C@H](CCN1CCCCC1)NC(=O)c1cc(-c2ccccc2C(F)(F)F)n(C2CCCC2)n1` [compound 494, (3S)-3-({1-cyclopentyl-5-[2-(trifluoromethyl)phenyl]-1H-pyrazol-3-yl}formamido)-5-(piperidin-1-yl)pentanoic acid] was 215 nM; that for `CN(C(=O)C[C@H](CCN1CCOCC1)NC(=O)c1cc(-c2ccccc2C(F)(F)F)n(C2CCCC2)n1)c1nccs1` [compound 495, (3S)-3-({1-cyclopentyl-5-[2-(trifluoromethyl)phenyl]-1H-pyrazol-3-yl}formamido)-N-methyl-5-(morpholin-4-yl)-N-(1,3-thiazol-2-yl)pentanamide] was 165 nM. Same read-out and setting: the value for `O=C(C[C@H](CCN1C2CCCC1CC2)NC(=O)c1cc(-c2ccccc2C(F)(F)F)n(C2CCCC2)n1)NC1CCC1` [compound 498, (3S)-5-{8-azabicyclo[3.2.1]octan-8-yl}-N-cyclobutyl-3-({1-cyclopentyl-5-[2-(trifluoromethyl)phenyl]-1H-pyrazol-3-yl}formamido)pentanamide] was 105 nM.

Take `O=C(O)C[C@H](CCN1CCCC1)NC(=O)c1cc(-c2ccccc2C(F)(F)F)n(C2CCCC2)n1` [compound 499, (3S)-3-({1-cyclopentyl-5-[2-(trifluoromethyl)phenyl]-1H-pyrazol-3-yl}formamido)-5-(pyrrolidin-1-yl)pentanoic acid]: the concentration for a half-maximal effect (EC50) is 548 nM.
